Test system: 817829-284-R-J1-PDC complex spheroid viability
Experiment: Anticancer human tumor 817829-284-R-J1-PDC patient-derived colon adenocarcinoma cell line growth inhibition [POLQ]
Conditions: for IC50: curve of first compound; for viability, T/C: stronger effect = lower value
Outline: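 Patient-derived tumour cells were co-cultured with HUVEC and mesenchymal stem cells as multicellular spheroids at 37 °C. They were treated with POLQ inhibitors (novobiocin, ART-558, RP6685) alone or combined with other agents. Top concentrations were at or near clinical Cmax (otherwise 10 microM; SN-38 at 1 microM), decreasing in half-log steps.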

[1] = second compound 0.0316 µM, first compound 0.0316 µM
[2] = second compound 0.0316 µM, first compound 0.1 µM
[3] = second compound 0.0316 µM, first compound 0.316 µM
[4] = second compound 0.0316 µM, first compound 1 µM
[5] = second compound 0.0316 µM, first compound 3.16 µM
[6] = second compound 0.0316 µM, first compound 10 µM
[7] = second compound 0.1 µM, first compound 0.0316 µM
[8] = second compound 0.1 µM, first compound 0.1 µM
[9] = second compound 0.1 µM, first compound 0.316 µM
[10] = second compound 0.1 µM, first compound 1 µM
[11] = second compound 0.1 µM, first compound 3.16 µM
[12] = second compound 0.1 µM, first compound 10 µM
[13] = second compound 0.316 µM, first compound 0.0316 µM
[14] = second compound 0.316 µM, first compound 0.1 µM
[15] = second compound 0.316 µM, first compound 0.316 µM
[16] = second compound 0.316 µM, first compound 1 µM
[17] = second compound 0.316 µM, first compound 3.16 µM
[18] = second compound 0.316 µM, first compound 10 µM
[19] = second compound 1 µM, first compound 0.0316 µM
[20] = second compound 1 µM, first compound 0.1 µM
[21] = second compound 1 µM, first compound 0.316 µM
[22] = second compound 1 µM, first compound 1 µM
[23] = second compound 1 µM, first compound 3.16 µM
[24] = second compound 1 µM, first compound 10 µM
[25] = second compound 3.16 µM, first compound 0.0316 µM
[26] = second compound 3.16 µM, first compound 0.1 µM
[27] = second compound 3.16 µM, first compound 0.316 µM
[28] = second compound 3.16 µM, first compound 1 µM
[29] = second compound 3.16 µM, first compound 3.16 µM
[30] = second compound 3.16 µM, first compound 10 µM
[31] = second compound 10 µM, first compound 0.0316 µM
[32] = second compound 10 µM, first compound 0.1 µM
[33] = second compound 10 µM, first compound 0.316 µM
[34] = second compound 10 µM, first compound 1 µM
[35] = second compound 10 µM, first compound 3.16 µM
[36] = second compound 10 µM, first compound 10 µM
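Also: spheroids exposed to compounds for 7 days.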
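For viability, T/C in this document: 100% = DMSO vehicle-treated spheroids.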

**Q.** How did the IC50 (second compound 0.0316 µM) turn out when `CCc1cc2c(N3CCc4c(cc(Cn5ccnc5)cc4-c4cn(C)nc4C(F)(F)F)C3=O)cc(C)nc2c(OC)n1` + Nc1ccc(C#CCN(C(=O)Cc2ncc(C(F)(F)F)cc2C(F)(F)F)c2ccc(F)cc2)nn1 was run?
**A.** 1750 nM

**Q.** What about the IC50 (second compound 0.1 µM) of the same compound?
**A.** 2070 nM

**Q.** And the IC50 (second compound 0.316 µM)?
**A.** 1650 nM

**Q.** And the IC50 (second compound 1 µM)?
**A.** 2190 nM

**Q.** What about the IC50 (second compound 3.16 µM) of the same compound?
**A.** 973 nM

**Q.** And the IC50 (second compound 10 µM)?
**A.** 963 nM

**Q.** What about the viability, T/C [1] of the same compound?
**A.** 85.5%

**Q.** And the viability, T/C [2]?
**A.** 73.8%

**Q.** And the viability, T/C [3]?
**A.** 67.8%

**Q.** What about the viability, T/C [4] of the same compound?
**A.** 56.1%

**Q.** And the viability, T/C [5]?
**A.** 43.7%

**Q.** And the viability, T/C [6]?
**A.** 31.4%

**Q.** And the viability, T/C [7]?
**A.** 101%

**Q.** What about the viability, T/C [8] of the same compound?
**A.** 80.5%

**Q.** And the viability, T/C [9]?
**A.** 71.9%

**Q.** What about the viability, T/C [10] of the same compound?
**A.** 62.2%

**Q.** What about the viability, T/C [11] of the same compound?
**A.** 46.7%

**Q.** What about the viability, T/C [12] of the same compound?
**A.** 26.7%

**Q.** And the viability, T/C [13]?
**A.** 92.9%

**Q.** And the viability, T/C [14]?
**A.** 80.3%

**Q.** What about the viability, T/C [15] of the same compound?
**A.** 71.7%

**Q.** And the viability, T/C [16]?
**A.** 57.1%

**Q.** What about the viability, T/C [17] of the same compound?
**A.** 40.4%

**Q.** And the viability, T/C [18]?
**A.** 30%

**Q.** What about the viability, T/C [19] of the same compound?
**A.** 87%

**Q.** And the viability, T/C [20]?
**A.** 66.3%

**Q.** And the viability, T/C [21]?
**A.** 72.4%

**Q.** What about the viability, T/C [22] of the same compound?
**A.** 82.6%

**Q.** And the viability, T/C [23]?
**A.** 37.3%

**Q.** And the viability, T/C [24]?
**A.** 23%

**Q.** What about the viability, T/C [25] of the same compound?
**A.** 98%

**Q.** What about the viability, T/C [26] of the same compound?
**A.** 76.7%

**Q.** And the viability, T/C [27]?
**A.** 65.5%

**Q.** What about the viability, T/C [28] of the same compound?
**A.** 49%

**Q.** And the viability, T/C [29]?
**A.** 37.8%

**Q.** What about the viability, T/C [30] of the same compound?
**A.** 29.1%

**Q.** What about the viability, T/C [31] of the same compound?
**A.** 101%

**Q.** What about the viability, T/C [32] of the same compound?
**A.** 71.3%

**Q.** What about the viability, T/C [33] of the same compound?
**A.** 68.5%

**Q.** And the viability, T/C [34]?
**A.** 50.2%

**Q.** What about the viability, T/C [35] of the same compound?
**A.** 38.3%

**Q.** What about the viability, T/C [36] of the same compound?
**A.** 30.4%

**Q.** With `COc1cc2cc(C(=O)CCC(=O)O)sc2cc1OC` + COC1C(OC(N)=O)C(O)C(Oc2ccc3c(O)c(NC(=O)c4ccc(O)c(CC=C(C)C)c4)c(=O)oc3c2C)OC1(C)C as the compound, how does the IC50 (second compound 0.0316 µM) read?
**A.** > 10000 nM

**Q.** And the IC50 (second compound 0.1 µM)?
**A.** > 10000 nM

**Q.** And the IC50 (second compound 0.316 µM)?
**A.** > 10000 nM

**Q.** What about the IC50 (second compound 1 µM) of the same compound?
**A.** > 10000 nM

**Q.** And the IC50 (second compound 3.16 µM)?
**A.** > 10000 nM

**Q.** And the IC50 (second compound 10 µM)?
**A.** > 10000 nM

**Q.** What about the viability, T/C [1] of the same compound?
**A.** 81.3%

**Q.** What about the viability, T/C [2] of the same compound?
**A.** 96.4%

**Q.** And the viability, T/C [3]?
**A.** 83.3%

**Q.** And the viability, T/C [4]?
**A.** 85.8%

**Q.** And the viability, T/C [5]?
**A.** 94.6%

**Q.** What about the viability, T/C [6] of the same compound?
**A.** 85.6%

**Q.** What about the viability, T/C [7] of the same compound?
**A.** 97.8%

**Q.** And the viability, T/C [8]?
**A.** 104%

**Q.** And the viability, T/C [9]?
**A.** 89.7%

**Q.** What about the viability, T/C [10] of the same compound?
**A.** 98.2%

**Q.** What about the viability, T/C [11] of the same compound?
**A.** 49.2%

**Q.** And the viability, T/C [12]?
**A.** 102%

**Q.** What about the viability, T/C [13] of the same compound?
**A.** 75.7%

**Q.** And the viability, T/C [14]?
**A.** 94.6%

**Q.** What about the viability, T/C [15] of the same compound?
**A.** 88.9%

**Q.** What about the viability, T/C [16] of the same compound?
**A.** 94.6%

**Q.** What about the viability, T/C [17] of the same compound?
**A.** 112%

**Q.** What about the viability, T/C [18] of the same compound?
**A.** 66.7%

**Q.** What about the viability, T/C [19] of the same compound?
**A.** 88.2%

**Q.** What about the viability, T/C [20] of the same compound?
**A.** 109%

**Q.** And the viability, T/C [21]?
**A.** 71.1%

**Q.** And the viability, T/C [22]?
**A.** 105%

**Q.** What about the viability, T/C [23] of the same compound?
**A.** 83.9%

**Q.** What about the viability, T/C [24] of the same compound?
**A.** 86.1%

**Q.** And the viability, T/C [25]?
**A.** 85.5%

**Q.** And the viability, T/C [26]?
**A.** 108%

**Q.** And the viability, T/C [27]?
**A.** 98.7%

**Q.** And the viability, T/C [28]?
**A.** 99.5%

**Q.** What about the viability, T/C [29] of the same compound?
**A.** 110%

**Q.** And the viability, T/C [30]?
**A.** 61.3%

**Q.** And the viability, T/C [31]?
**A.** 106%

**Q.** What about the viability, T/C [32] of the same compound?
**A.** 71.2%

**Q.** And the viability, T/C [33]?
**A.** 90.9%

**Q.** What about the viability, T/C [34] of the same compound?
**A.** 80.8%

**Q.** And the viability, T/C [35]?
**A.** 117%

**Q.** And the viability, T/C [36]?
**A.** 74.1%

**Q.** With `CCc1cc2c(N3CCc4c(cc(Cn5ccnc5)cc4-c4cn(C)nc4C(F)(F)F)C3=O)ccnc2c(OC)n1` + COC1C(OC(N)=O)C(O)C(Oc2ccc3c(O)c(NC(=O)c4ccc(O)c(CC=C(C)C)c4)c(=O)oc3c2C)OC1(C)C as the compound, how does the IC50 (second compound 0.0316 µM) read?
**A.** 2920 nM

**Q.** And the IC50 (second compound 0.1 µM)?
**A.** 3300 nM

**Q.** And the IC50 (second compound 0.316 µM)?
**A.** 5170 nM

**Q.** And the IC50 (second compound 1 µM)?
**A.** 1580 nM

**Q.** What about the IC50 (second compound 3.16 µM) of the same compound?
**A.** 6940 nM

**Q.** What about the IC50 (second compound 10 µM) of the same compound?
**A.** 4320 nM

**Q.** And the viability, T/C [1]?
**A.** 79%

**Q.** And the viability, T/C [2]?
**A.** 80.2%

**Q.** And the viability, T/C [3]?
**A.** 84.7%

**Q.** What about the viability, T/C [4] of the same compound?
**A.** 70%

**Q.** What about the viability, T/C [5] of the same compound?
**A.** 49%

**Q.** What about the viability, T/C [6] of the same compound?
**A.** 32.2%

**Q.** And the viability, T/C [7]?
**A.** 90.3%

**Q.** And the viability, T/C [8]?
**A.** 94%

**Q.** And the viability, T/C [9]?
**A.** 83.2%

**Q.** And the viability, T/C [10]?
**A.** 70.3%

**Q.** And the viability, T/C [11]?
**A.** 51.6%

**Q.** And the viability, T/C [12]?
**A.** 29.7%

**Q.** What about the viability, T/C [13] of the same compound?
**A.** 82.8%

**Q.** And the viability, T/C [14]?
**A.** 98.2%

**Q.** What about the viability, T/C [15] of the same compound?
**A.** 77.7%

**Q.** And the viability, T/C [16]?
**A.** 97.5%

**Q.** What about the viability, T/C [17] of the same compound?
**A.** 57.8%

**Q.** And the viability, T/C [18]?
**A.** 39.5%

**Q.** What about the viability, T/C [19] of the same compound?
**A.** 95.7%

**Q.** What about the viability, T/C [20] of the same compound?
**A.** 73%

**Q.** And the viability, T/C [21]?
**A.** 97.3%

**Q.** And the viability, T/C [22]?
**A.** 53.3%

**Q.** And the viability, T/C [23]?
**A.** 54.9%

**Q.** What about the viability, T/C [24] of the same compound?
**A.** 35.2%

**Q.** What about the viability, T/C [25] of the same compound?
**A.** 72.8%

**Q.** What about the viability, T/C [26] of the same compound?
**A.** 83.7%

**Q.** And the viability, T/C [27]?
**A.** 89.4%

**Q.** And the viability, T/C [28]?
**A.** 68.3%

**Q.** What about the viability, T/C [29] of the same compound?
**A.** 63.7%

**Q.** What about the viability, T/C [30] of the same compound?
**A.** 44.2%

**Q.** What about the viability, T/C [31] of the same compound?
**A.** 104%

**Q.** What about the viability, T/C [32] of the same compound?
**A.** 82.2%

**Q.** And the viability, T/C [33]?
**A.** 75.2%

**Q.** And the viability, T/C [34]?
**A.** 75.2%

**Q.** And the viability, T/C [35]?
**A.** 57%

**Q.** What about the viability, T/C [36] of the same compound?
**A.** 35.2%

From PubChem BioAssay AID1963839 (Molecular Pharmacology Branch, DTP, NCI, 2024)
